Reference: patent publication US20250127863A1, “ANTIMICROBIAL PEPTIDE FOR ONYCHOMYCOSIS” (CBMR SCIENTIFIC NANOSCIENCE B.V., priority 2019, published 2025)
No end group written: not given here.

Experiments:
[1] = system: Crypt. neoform. ▴ SKN7 (UMC); test: MIC90 growth inhibition; type: cell-based, Cryptococcus neoformans; settings: genetically modified type species, RPMI 1640 one-fourth strength
Description: (§1) The minimum inhibitory concentration (MIC) value is defined as the lowest sample concentration that inhibited growth. In the Examples, the MIC90 value is presented, which MIC90 values are determined according to established methods known to the person with the skills in the relevant art. Experiments; 1×10E5 CFU of various strains/ml were incubated for 24-48 h at 37° C. in 4× diluted medium of RPMI 1640 with the indicated concentrations of antimicrobial peptide hLF(1-11) [SEQ ID NO: 3]. As controls various strains cells were incubated for 24-48 h at 37° C. with no agent (antimicrobial peptide), and subsequently, growth of the microbial organism (e.g. yeast, bacterium) was monitored by using spectrophotometry with a spectrophotometer at 620 nm. […] ND=Not done. Representative single assay data are listed rather than a range, for clarity reasons and for ease of comparison of peptide efficacy. The MIC was calculated as the lowest antibiotic (antimicrobial peptide) concentration at which growth of the assessed yeast or bacterium (microbe) was inhibited (inhibitory concentration IC90).

onychomycosis = test: Application of the composition by human subjects (Example 1); type: in vivo
Description: The concentration of the antimicrobial peptide in the composition used for the treatment of onychomycosis by human subjects, was 30 mg/l ([…]).
The composition used comprises the antimicrobial peptide hLF1-11 (GRRRRSVQWCA) [SEQ ID NO: 3] and is a clear colorless liquid in a (glass) bottle with a dropper to facilitate application to the nail. […] The antimicrobial peptide is completely biodegradable.
The composition is applied twice a day to the affected nail and cuticle, preferably in the morning and in the evening. Hold the tip of the dropper above the nail. Avoid direct contact between the dropper providing the solution and the infected nail to keep liquid clean. Squeeze the tube gently and drop the drop onto the cuticle/proximal fold. It is preferred to cover the whole nail with a thin layer of the solution. In particular cases it is important that the solution is also applied under the edge of the affected nail (on the distal nail bed) e.g. with a cotton swab, in particular when the infection started from there. Allow the nail to dry for a few minutes after application. The treatment duration varies depending on the severity of the infection; in many cases 3-6 months of treatment may be necessary. For optimal results, continue the treatment until a new healthy nail has fully grown. […] Reference is made to FIG. 1.

Rhizoctonia solani = test: IC50 growth inhibition; type: cell-based
Candida spp. = test: MIC90 growth inhibition; type: cell-based; settings: RPMI 1640 one-fourth strength
Description: as §1

Penicillium vermiculatum = test: MIC90 growth inhibition; type: cell-based; settings: RPMI 1640 one-fourth strength
Description: as §1

[2] = system: Malassezia furfur CBS 1878; test: MIC90 growth inhibition; type: cell-based; settings: RPMI 1640 one-fourth strength
Description: as §1

Altematria spp. = test: MIC90 growth inhibition; type: cell-based; settings: RPMI 1640 one-fourth strength
Description: as §1

Mucor spp = test: MIC90 growth inhibition; type: cell-based; settings: RPMI 1640 one-fourth strength
Description: as §1

[3] = system: Cryptococcus uniguttulatus; test: MIC90 growth inhibition; type: cell-based; settings: RPMI 1640 one-fourth strength
Description: as §1

Nannizzia incurvata = test: MIC90 growth inhibition; type: cell-based; settings: RPMI 1640 one-fourth strength
Description: as §1

[4] = system: Malassezia furfur CBS 9595; test: MIC90 growth inhibition; type: cell-based; settings: RPMI 1640 one-fourth strength
Description: as §1

Sporothrix schenckii = test: MIC90 growth inhibition; type: cell-based; settings: RPMI 1640 one-fourth strength
Description: as §1

Aspergillus fumigatus = test: MIC90 growth inhibition; type: cell-based; settings: RPMI 1640 one-fourth strength
Description: as §1

Phoma exigua = test: IC50 growth inhibition; type: cell-based
C. parapsilosis CBS #57 = test: MIC90 growth inhibition; type: cell-based, Candida parapsilosis; settings: RPMI 1640 one-fourth strength
Description: as §1

C. parapsilosis CBS #61 = test: MIC90 growth inhibition; type: cell-based, Candida parapsilosis; settings: RPMI 1640 one-fourth strength
Description: as §1

C. parapsilosis CBS #7 = test: MIC90 growth inhibition; type: cell-based, Candida parapsilosis; settings: RPMI 1640 one-fourth strength
Description: as §1

C. parapsilosis CMC-2039 = test: MIC90 growth inhibition; type: cell-based, Candida parapsilosis; settings: RPMI 1640 one-fourth strength
Description: as §1

C. haemulonii = test: MIC90 growth inhibition; type: cell-based, Candida haemulonii; settings: RPMI 1640 one-fourth strength
Description: as §1

C. tropicalis CMC-2041 = test: MIC90 growth inhibition; type: cell-based, Candida tropicalis; settings: RPMI 1640 one-fourth strength
Description: as §1

C. tropicalis spp. = test: MIC90 growth inhibition; type: cell-based, Candida tropicalis; settings: RPMI 1640 one-fourth strength
Description: as §1

C. tropicalis CBS-94 = test: MIC90 growth inhibition; type: cell-based, Candida tropicalis; settings: RPMI 1640 one-fourth strength
Description: as §1

C. tropicalis (LUMC) = test: MIC90 growth inhibition; type: cell-based, Candida tropicalis; settings: RPMI 1640 one-fourth strength
Description: as §1

C. auris = test: MIC90 growth inhibition; type: cell-based, Candida auris; settings: RPMI 1640 one-fourth strength
Description: as §1

[5] = system: C. guilliermondii CBS-2030; test: MIC90 growth inhibition; type: cell-based, Candida guilliermondii; settings: RPMI 1640 one-fourth strength
Description: as §1

C. guilliermondii = test: MIC90 growth inhibition; type: cell-based, Candida guilliermondii; settings: RPMI 1640 one-fourth strength
Description: as §1

C. glabrata CMC-1933 = test: MIC90 growth inhibition; type: cell-based, Candida glabrata; settings: RPMI 1640 one-fourth strength
Description: as §1

C. glabrata spp. = test: MIC90 growth inhibition; type: cell-based, Candida glabrata; settings: RPMI 1640 one-fourth strength
Description: as §1

C. glabrata (LUMC) = test: MIC90 growth inhibition; type: cell-based, Candida glabrata; settings: RPMI 1640 one-fourth strength
Description: as §1

C. glabrata CBS-138 = test: MIC90 growth inhibition; type: cell-based, Candida glabrata; settings: RPMI 1640 one-fourth strength
Description: as §1

## GRRRRSVQWCA [hLF1-11, Gly Arg Arg Arg Arg Ser Val Gln Trp Cys Ala]
[1]
  Inhibitory concentration MIC (MIC90): MIC = 6.3 μg/ml
onychomycosis; after 4 months or even longer
  recurrent infection in treated patients: do not show signs of recurrent infection
onychomycosis; twice daily application, 30 mg/l composition
  time to first visible improvements: two to four
Rhizoctonia solani
  Inhibitory concentration IC50: IC50 = 121 μg/mL
Candida spp.
  Inhibitory concentration MIC (MIC90): MIC = 12.5-50 μg/ml
Penicillium vermiculatum
  Inhibitory concentration MIC (MIC90): MIC = 45 μg/ml
[2]
  Inhibitory concentration MIC (MIC90): MIC = 12.5-50 μg/mL
Altematria spp.
  Inhibitory concentration MIC (MIC90): MIC = 16 μM
Mucor spp
  Inhibitory concentration MIC (MIC90): MIC = 25-50 μg/mL
[3]
  Inhibitory concentration MIC (MIC90): MIC = 6 μg/ml
Nannizzia incurvata
  Inhibitory concentration MIC (MIC90): MIC = 18 μg/ml
[4]
  Inhibitory concentration MIC (MIC90): MIC = 25-50 μg/mL
Sporothrix schenckii
  Inhibitory concentration MIC (MIC90): MIC = 2-10 μg/ml
Aspergillus fumigatus
  Inhibitory concentration MIC (MIC90): MIC = 2.5-25 μg/ml
Phoma exigua
  Inhibitory concentration IC50: IC50 = 821 μg/mL
C. parapsilosis CBS #57
  Inhibitory concentration MIC (MIC90): MIC = 25-50 μg/mL
C. parapsilosis CBS #61
  Inhibitory concentration MIC (MIC90): MIC = 25-50 μg/mL
C. parapsilosis CBS #7
  Inhibitory concentration MIC (MIC90): MIC = 25-50 μg/mL
C. parapsilosis CMC-2039; C. parapsilosis CMC-2039, second listing
  Inhibitory concentration MIC (MIC90): MIC = 25 μg/ml
C. parapsilosis CMC-2039
  Inhibitory concentration MIC (MIC90): MIC = 25 μg/mL
C. haemulonii
  Inhibitory concentration MIC (MIC90): MIC = 25 μg/mL
C. tropicalis CMC-2041; C. tropicalis CMC-2041, second listing
  Inhibitory concentration MIC (MIC90): MIC = 50 μg/ml
C. tropicalis CMC-2041
  Inhibitory concentration MIC (MIC90): MIC = 50 μg/mL
C. tropicalis spp.
  Inhibitory concentration MIC (MIC90): MIC = 12.5-100 μg/mL
C. tropicalis CBS-94; C. tropicalis CBS-94, second listing
  Inhibitory concentration MIC (MIC90): MIC = 50 μg/ml
C. tropicalis CBS-94
  Inhibitory concentration MIC (MIC90): MIC = 50 μg/mL
C. tropicalis (LUMC)
  Inhibitory concentration MIC (MIC90): MIC = 25 μg/mL
C. tropicalis (LUMC); second listing
  Inhibitory concentration MIC (MIC90): MIC = 25 μg/ml
C. auris
  Inhibitory concentration MIC (MIC90): MIC = 12.5-25 μg/ml
[5]
  Inhibitory concentration MIC (MIC90): MIC = 50 μg/ml
C. guilliermondii
  Inhibitory concentration MIC (MIC90): MIC = 5-40 μg/ml
C. glabrata CMC-1933
  Inhibitory concentration MIC (MIC90): MIC = 25 μg/mL
C. glabrata spp.
  Inhibitory concentration MIC (MIC90): MIC = 25 μg/mL
C. glabrata (LUMC)
  Inhibitory concentration MIC (MIC90): MIC = 25 μg/mL
C. glabrata CBS-138
  Inhibitory concentration MIC (MIC90): MIC = 25 μg/mL
